Laboratory results published in ChEMBL document CHEMBL5465560, “Selectivity Literature for EUbOPEN Chemogenomic Library” (2024).
Values belong to the compound of their own block, whether it stands above or below them.

What was measured:
[1] = biological target: Mitogen-activated protein kinase 9 (Homo sapiens, UniProt P45984); assay: Selectivity interaction (KinomeScan (DiscoverX)) EUB0001049a MAPK9; details: at 1 µM
[2] = biological target: T1, Bromodomain-containing protein 1 (Homo sapiens) (UniProt O95696); assay: Selectivity interaction (Bromodomain panel (DSF asssay)) EUB0000270b BRD1
T1 sequence (whole entry): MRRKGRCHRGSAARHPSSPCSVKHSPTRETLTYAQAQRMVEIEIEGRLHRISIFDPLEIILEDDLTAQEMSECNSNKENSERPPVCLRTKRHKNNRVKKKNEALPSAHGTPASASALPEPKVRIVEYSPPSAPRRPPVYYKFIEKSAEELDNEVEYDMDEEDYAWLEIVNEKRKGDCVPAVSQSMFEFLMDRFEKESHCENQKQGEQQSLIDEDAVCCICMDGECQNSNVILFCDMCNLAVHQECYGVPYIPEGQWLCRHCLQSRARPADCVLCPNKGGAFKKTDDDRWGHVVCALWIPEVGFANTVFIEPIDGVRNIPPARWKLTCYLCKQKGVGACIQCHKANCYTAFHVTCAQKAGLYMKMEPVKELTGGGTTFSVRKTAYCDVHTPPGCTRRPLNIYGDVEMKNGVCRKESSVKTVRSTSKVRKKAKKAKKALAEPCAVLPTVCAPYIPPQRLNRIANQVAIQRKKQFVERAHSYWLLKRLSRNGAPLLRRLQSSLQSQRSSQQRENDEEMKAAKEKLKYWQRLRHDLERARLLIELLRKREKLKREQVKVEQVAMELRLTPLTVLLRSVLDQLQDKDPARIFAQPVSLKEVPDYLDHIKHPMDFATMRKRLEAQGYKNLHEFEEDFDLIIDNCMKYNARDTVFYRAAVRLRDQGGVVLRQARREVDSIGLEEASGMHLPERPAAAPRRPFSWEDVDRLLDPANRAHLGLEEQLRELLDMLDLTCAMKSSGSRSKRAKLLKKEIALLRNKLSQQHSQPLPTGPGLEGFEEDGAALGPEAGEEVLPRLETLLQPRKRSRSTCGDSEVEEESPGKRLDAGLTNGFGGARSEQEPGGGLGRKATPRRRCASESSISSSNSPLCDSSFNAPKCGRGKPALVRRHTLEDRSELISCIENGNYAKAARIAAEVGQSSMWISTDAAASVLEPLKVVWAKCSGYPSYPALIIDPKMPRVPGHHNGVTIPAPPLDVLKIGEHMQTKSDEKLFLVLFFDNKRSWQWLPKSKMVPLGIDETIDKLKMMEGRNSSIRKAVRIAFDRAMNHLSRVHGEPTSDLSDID

[3] = biological target: Mitogen-activated protein kinase kinase kinase 11 (Homo sapiens) (UniProt Q16584); assay: Selectivity interaction (Kinase panel (literature)) EUB0001199aCl MAP3K11; details: at 1 µM
[4] = biological target: Serine/threonine-protein kinase Nek6 (Homo sapiens) (UniProt Q9HC98); details: at 10 µM
[5] = biological target: Vascular endothelial growth factor receptor 1 (Homo sapiens) (UniProt P17948); assay: Selectivity interaction (KinomeScan (DiscoverX)) EUB0001619a FLT1; details: at 1 µM
[6] = biological target: Protein-tyrosine kinase 2-beta (Homo sapiens) (UniProt Q14289); assay: Selectivity interaction (KinomeScan (DiscoverX)) EUB0000618a PTK2B; details: at 10 µM
[7] = biological target: Serine/threonine-protein kinase mTOR (Homo sapiens, UniProt P42345); assay: Selectivity interaction (Kinase panel (KiNativ target engagement assay in Jurkat cells)) EUB0001635a MTOR; format: cell-based; details: Selectivity number of off-targets 0.0, Selectivity number of targets 233.0, Source Knowledge https://www.sciencedirect.com/science/article/pii/S2451945619300674?via%3Dihub, at 1 µM
[8] = biological target: T2, Phosphatidylinositol 5-phosphate 4-kinase type-2 beta (Homo sapiens) (UniProt P78356); assay: Selectivity interaction (KinomeScan (DiscoverX)) EUB0000666a PIP4K2B; details: at 10 µM
T2 sequence (whole entry): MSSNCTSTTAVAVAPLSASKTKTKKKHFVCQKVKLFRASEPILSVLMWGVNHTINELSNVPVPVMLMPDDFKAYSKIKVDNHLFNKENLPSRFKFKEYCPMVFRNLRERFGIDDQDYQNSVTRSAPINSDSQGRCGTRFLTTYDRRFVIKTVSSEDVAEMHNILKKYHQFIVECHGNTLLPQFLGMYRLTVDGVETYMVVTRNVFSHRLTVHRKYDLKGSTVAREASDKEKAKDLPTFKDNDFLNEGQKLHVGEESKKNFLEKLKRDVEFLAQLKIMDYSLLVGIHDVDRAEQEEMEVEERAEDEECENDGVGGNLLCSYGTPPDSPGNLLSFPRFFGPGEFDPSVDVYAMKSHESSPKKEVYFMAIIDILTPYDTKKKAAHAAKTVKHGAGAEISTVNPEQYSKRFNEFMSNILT

[9] = biological target: 5'-AMP-activated protein kinase catalytic subunit alpha-2 (Homo sapiens) (UniProt P54646); assay: Selectivity interaction (KinomeScan (DiscoverX)) EUB0000666a PRKAA2; details: at 10 µM
Chain of 5'-AMP-activated protein kinase catalytic subunit alpha-2 (Homo sapiens) (P54646 whole entry, looked up): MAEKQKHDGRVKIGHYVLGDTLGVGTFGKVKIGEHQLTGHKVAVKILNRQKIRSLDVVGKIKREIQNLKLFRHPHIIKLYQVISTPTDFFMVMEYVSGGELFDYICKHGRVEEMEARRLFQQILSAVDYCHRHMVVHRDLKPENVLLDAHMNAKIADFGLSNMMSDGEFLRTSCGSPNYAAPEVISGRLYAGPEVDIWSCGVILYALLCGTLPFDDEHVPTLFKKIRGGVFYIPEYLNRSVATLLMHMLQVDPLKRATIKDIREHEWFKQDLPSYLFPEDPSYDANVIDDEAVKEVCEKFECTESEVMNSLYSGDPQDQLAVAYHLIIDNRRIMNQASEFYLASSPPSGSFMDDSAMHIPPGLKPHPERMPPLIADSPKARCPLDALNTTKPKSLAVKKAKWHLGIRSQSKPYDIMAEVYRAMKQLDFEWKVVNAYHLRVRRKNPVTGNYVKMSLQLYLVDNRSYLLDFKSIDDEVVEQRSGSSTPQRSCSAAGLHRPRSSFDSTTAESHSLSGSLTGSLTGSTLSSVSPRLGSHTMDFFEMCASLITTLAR

Chain of Mitogen-activated protein kinase kinase kinase 11 (Homo sapiens) (Q16584 whole entry, looked up): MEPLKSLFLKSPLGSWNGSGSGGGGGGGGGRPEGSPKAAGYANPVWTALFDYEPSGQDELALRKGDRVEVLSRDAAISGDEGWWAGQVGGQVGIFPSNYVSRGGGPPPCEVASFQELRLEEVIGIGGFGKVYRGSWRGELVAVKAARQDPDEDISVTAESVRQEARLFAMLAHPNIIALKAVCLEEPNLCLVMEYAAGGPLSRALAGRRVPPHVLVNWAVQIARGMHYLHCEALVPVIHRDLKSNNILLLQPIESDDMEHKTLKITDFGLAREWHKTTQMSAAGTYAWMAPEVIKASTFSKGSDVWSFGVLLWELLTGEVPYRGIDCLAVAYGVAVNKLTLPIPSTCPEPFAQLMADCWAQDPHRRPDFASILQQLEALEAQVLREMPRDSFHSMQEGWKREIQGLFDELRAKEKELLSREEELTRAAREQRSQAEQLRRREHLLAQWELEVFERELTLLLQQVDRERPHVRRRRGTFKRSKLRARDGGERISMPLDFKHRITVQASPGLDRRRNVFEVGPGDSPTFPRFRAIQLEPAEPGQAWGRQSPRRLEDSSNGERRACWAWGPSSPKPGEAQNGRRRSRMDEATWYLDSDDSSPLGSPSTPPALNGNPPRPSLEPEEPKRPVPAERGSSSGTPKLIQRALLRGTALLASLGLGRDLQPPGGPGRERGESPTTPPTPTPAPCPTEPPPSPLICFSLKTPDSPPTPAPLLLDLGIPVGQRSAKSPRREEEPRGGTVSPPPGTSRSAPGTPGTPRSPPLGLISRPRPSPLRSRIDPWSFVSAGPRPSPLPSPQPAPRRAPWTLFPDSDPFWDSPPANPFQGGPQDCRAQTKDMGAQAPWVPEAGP
Chain of Vascular endothelial growth factor receptor 1 (Homo sapiens) (P17948 whole entry): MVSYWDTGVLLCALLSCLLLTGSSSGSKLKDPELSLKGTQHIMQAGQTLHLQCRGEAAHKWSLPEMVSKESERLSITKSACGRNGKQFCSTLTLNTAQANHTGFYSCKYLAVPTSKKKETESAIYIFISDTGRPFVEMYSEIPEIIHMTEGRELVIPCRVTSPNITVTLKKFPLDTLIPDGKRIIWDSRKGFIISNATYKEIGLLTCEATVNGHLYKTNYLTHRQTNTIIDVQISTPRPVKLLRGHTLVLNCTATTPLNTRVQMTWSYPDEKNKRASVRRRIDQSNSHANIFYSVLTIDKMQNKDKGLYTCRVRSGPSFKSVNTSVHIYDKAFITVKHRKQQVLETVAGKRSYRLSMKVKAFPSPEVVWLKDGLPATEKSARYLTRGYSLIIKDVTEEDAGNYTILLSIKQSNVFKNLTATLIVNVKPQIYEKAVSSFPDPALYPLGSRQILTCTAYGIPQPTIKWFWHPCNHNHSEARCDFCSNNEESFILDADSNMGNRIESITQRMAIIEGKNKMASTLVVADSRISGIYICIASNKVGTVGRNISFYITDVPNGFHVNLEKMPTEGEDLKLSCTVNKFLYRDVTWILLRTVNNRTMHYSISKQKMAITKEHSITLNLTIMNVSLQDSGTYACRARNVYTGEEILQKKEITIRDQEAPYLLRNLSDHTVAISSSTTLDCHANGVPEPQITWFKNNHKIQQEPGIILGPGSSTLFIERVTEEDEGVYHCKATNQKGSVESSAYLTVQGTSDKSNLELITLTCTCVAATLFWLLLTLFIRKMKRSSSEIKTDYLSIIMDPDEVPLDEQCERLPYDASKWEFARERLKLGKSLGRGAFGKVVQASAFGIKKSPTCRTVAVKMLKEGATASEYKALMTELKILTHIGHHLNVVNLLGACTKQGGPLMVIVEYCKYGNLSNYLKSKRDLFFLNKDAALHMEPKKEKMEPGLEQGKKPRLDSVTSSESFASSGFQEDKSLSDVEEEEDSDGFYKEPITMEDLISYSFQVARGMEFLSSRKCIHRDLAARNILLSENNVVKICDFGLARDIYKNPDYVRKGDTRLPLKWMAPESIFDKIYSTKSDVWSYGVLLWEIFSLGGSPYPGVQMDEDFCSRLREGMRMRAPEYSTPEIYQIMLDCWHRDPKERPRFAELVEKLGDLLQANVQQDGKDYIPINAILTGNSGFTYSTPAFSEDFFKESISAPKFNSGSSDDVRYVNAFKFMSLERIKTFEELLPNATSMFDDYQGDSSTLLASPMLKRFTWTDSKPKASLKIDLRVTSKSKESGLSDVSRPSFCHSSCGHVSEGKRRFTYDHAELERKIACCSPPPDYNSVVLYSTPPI
Chain of Protein-tyrosine kinase 2-beta (Homo sapiens) (Q14289 whole entry, looked up): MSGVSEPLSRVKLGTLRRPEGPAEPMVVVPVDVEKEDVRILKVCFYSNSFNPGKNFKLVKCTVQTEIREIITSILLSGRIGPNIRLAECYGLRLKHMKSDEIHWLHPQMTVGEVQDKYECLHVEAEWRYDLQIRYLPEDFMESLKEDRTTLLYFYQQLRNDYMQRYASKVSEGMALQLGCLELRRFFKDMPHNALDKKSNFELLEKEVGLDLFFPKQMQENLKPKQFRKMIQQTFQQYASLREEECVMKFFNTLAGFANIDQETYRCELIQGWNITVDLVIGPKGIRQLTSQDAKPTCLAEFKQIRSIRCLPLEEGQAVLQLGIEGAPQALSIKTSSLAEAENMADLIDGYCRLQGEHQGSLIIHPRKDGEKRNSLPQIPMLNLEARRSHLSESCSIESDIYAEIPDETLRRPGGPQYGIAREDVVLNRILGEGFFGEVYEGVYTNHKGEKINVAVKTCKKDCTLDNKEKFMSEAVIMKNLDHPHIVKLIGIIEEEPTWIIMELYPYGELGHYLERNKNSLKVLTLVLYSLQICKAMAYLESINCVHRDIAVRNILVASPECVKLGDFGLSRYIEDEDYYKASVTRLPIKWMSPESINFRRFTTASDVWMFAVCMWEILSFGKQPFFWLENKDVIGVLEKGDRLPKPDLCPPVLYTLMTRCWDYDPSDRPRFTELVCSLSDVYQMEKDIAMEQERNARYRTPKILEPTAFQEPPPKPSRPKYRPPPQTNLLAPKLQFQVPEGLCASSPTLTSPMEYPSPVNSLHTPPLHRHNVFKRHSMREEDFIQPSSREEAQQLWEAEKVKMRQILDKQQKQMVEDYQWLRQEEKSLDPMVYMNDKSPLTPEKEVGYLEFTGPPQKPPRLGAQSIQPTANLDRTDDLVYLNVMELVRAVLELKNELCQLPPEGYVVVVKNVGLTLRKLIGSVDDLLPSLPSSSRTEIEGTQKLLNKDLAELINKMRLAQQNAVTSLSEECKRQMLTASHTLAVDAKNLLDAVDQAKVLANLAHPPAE
Chain of Mitogen-activated protein kinase 9 (P45984 whole entry, looked up): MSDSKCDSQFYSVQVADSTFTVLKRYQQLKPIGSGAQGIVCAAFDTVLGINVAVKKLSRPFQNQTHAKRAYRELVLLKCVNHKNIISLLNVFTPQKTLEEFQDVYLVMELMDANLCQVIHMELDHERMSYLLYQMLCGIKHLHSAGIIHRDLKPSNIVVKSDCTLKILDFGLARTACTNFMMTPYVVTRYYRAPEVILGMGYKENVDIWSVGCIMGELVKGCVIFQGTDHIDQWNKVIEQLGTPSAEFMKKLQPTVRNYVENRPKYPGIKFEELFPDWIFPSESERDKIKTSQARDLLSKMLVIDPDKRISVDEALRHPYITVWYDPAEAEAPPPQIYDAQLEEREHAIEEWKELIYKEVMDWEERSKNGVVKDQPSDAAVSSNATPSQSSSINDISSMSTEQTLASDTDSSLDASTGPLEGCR
Chain of Serine/threonine-protein kinase Nek6 (Homo sapiens) (Q9HC98 whole entry): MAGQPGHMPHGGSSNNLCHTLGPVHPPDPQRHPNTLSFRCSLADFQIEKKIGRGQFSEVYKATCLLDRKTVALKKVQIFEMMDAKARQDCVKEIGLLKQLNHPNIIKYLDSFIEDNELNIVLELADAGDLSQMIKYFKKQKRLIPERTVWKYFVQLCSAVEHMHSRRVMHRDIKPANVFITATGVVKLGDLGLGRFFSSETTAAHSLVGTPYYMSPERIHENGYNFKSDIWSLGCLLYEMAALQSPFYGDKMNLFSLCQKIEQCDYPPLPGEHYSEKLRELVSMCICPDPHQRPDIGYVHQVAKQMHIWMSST

Structure (SMILES): COc1cc(Nc2nc(C)cc(-c3cnn4nc(OC)ccc34)n2)cc(C(F)(F)F)c1
- % of control [1]: 82%

- dTM [2]: -2.24 K
Structure (SMILES): Cc1cc(CN)cc(C)c1-c1ncn(C)c1-c1cncn1C

- % of inhibition [3]: 3%
Structure (SMILES): CN1Cc2nccc(-c3cn(C)nc3-c3ccc(F)cc3)c2C1=O

- % of control [4]: 100%
Structure (SMILES): CCN(CC)CCCCNc1ncc2cc(-c3cc(OC)cc(OC)c3)c(NC(=O)NC(C)(C)C)nc2n1

Structure (SMILES): N#Cc1cccc(-c2c[nH]c3ncnc(N4CCOCC4)c23)c1
- % of control [5]: 73%

Structure (SMILES): O[C@H]1CC[C@H](Nc2ncc3nc(Nc4c(F)cc(F)cc4F)n([C@H]4CCOC4)c3n2)CC1
- % of control [6]: 91%

Structure (SMILES): C=CC(=O)Nc1ccc(C(=O)Nc2[nH]nc3c2CN(C(=O)N[C@H](CN(C)C)c2ccccc2)C3(C)C)cc1
- % of engagement [7]: -11.9%

Structure (SMILES): O=C(NOC[C@H](O)CO)c1ccc(F)c(F)c1Nc1ccc(I)cc1F
- % of control [8]: 100%
- % of control [9]: 97%
